Patent publication US11857601B2, “Pharmaceutical composition for cancer treatment comprising fusion protein including IL-2 protein and CD80 protein and anticancer drug” (GI INNOVATION, INC., priority 2020, dated 2024)

Legend:
[1] = tested on: CD8+ T cells and CD4+/FoxP3+ Treg cells; experiment: Proliferation of CD8+ T cells and Treg cells in PBMCs (Exp. Ex. 10); assay type: cell-based, human
Method: Human PBMCs were purchased from Allcells (Lot #3014928, USA). […] CellTrace CFSE dye was used, which was reacted with the human PBMCs under a light-blocking condition at […] for 20 minutes. The cells were labeled with CFSE by being reacted with 1 μM CellTrace CFSE dye at 37° C. for 20 minutes. CFSE not bound to the cells was removed by being reacted for 5 minutes with a culture medium having a 5-fold volume of the staining reaction solution and then by being centrifuged at 1,300 rpm for 5 minutes. The CFSE-labeled PBMCs were resuspended in the culture medium (RPMI1640 medium containing 10% fetal bovine serum, 10 mM HEPES, 100 U/ml penicillin/streptomycin, 1 mM sodium pyruvate, 55 μM 2-mercaptoethanol, 1 mM non-essential amino acid, and 2 mM L-glutamine), and then added to a 96-well microplate at 1×10^5 cells per well.
The incubated cells were examined for their degree of proliferation by measuring, with FACS analysis using anti-human CD4-PE antibody (BioLegend, USA), anti-human CD8-PE/Cy7 antibody (BioLegend, USA), and anti-human FoxP3-APC antibody (BioLegend, USA), a proportion of CD8+ T cells that had not been labeled with CFSE.

[2] = tested on: NCl-H292 cancer cell line with human PBMCs; experiment: T cell activity inhibition by cancer cells expressing PD-L1 and CTLA-4 (IFN-γ ELISA); assay type: cell-based; conditions: 50 nM, 3 days
Method: NCl-H292 cancer cell line expressing PD-L1 and CTLA-4 was cultured for 3 hours in a culture medium containing 10 μg/ml Mitomycin C (Sigma), and then Mitomycin C was removed by washing with the culture medium. Thereafter, 5×10^4 cells of the Mitomycin C-treated NCl-H292 cancer cell line were incubated with 1×10^5 cells of human PBMCs in a 96-well microplate. Here, treatment with 5 μg/ml of PHA (Sigma) was performed for T cell activity. […] After 3 days, the supernatant of the cell culture was collected and the amount of IFN-γ was quantified using an ELISA kit (Biolegend).
As a positive control, human PBMCs stimulated with PHA in the absence of the Mitomycin C-treated NCl-H292 cancer cell line were used; and as a negative control, human PBMCs stimulated with PHA in the presence of the Mitomycin C-treated NCl-H292 cancer cell line were used. An experimental method using the IFN-7 ELISA kit was carried out in the same manner as in Experimental Example 9.3.

MDA-MB-231 cells = experiment: GI101 and Keytruda in humanized mice xenotransplanted with MDA-MB-231; assay type: in vivo, human
Method: Fetal bovine serum (FBS, 16000-044, Thermofisher scientific, USA), penicillin-streptomycin; 10,000 units/ml penicillin and 10,000 μg/ml streptomycin (15140122, Thermofisher scientific, USA); and RPMI1640 (A1049101, Thermofisher scientific, USA) per 100 ml were mixed and used.
The cells were suspended using Trypsin-EDTA (Cat. 25200-072, Thermofisher scientific, USA). The suspended cells were collected by centrifugation (125×g, 5 minutes) using a centrifuge, transferred to a new medium and a new flask, and passage cultured. The cultured cells were put to a centrifugation tube on the day of cell line transplantation and then collected. […] 8-week-old female NSGb2m (NOD.Cg-B2m^tm1UncPrkdc^scidIl2rg^tm1Wjl/SzJ) mice were purchased from Joongang Bio (Korea) and used for the test. The body weight was measured the next day after the end of the quarantine and acclimation period, and then the human-derived PBMC cell suspension (5×10^6 cells/0.2 ml) prepared for healthy animals was filled into a disposable syringe and administered to the caudal vein of the animals. General symptoms were observed once a day after cell transplantation.
A certain period of time after the cell transplantation, the tumor volume was measured for animals with no abnormalities in the health condition of the animals, and 32 subjects were selected so that the average of each group reached 40 to 80 mm^3. The selected animals were grouped into a total of 4 groups as evenly as possible based on tumor volume and body weight, each group including 8 animals.
General symptoms such as appearance, behavior, and excrement were observed once a day during the observation period, and deceased animals were identified. Body weight was measured on the day of cell line transplantation, twice a week, and on the day of animal sacrifice. The major axis (maximum length, L) and minor axis (perpendicular width, W) of the tumor were measured using a caliper (Digital caliper, mitutoyo, Japan) three times a week during the observation period, and the tumor volume (TV) was calculated by substituting them into the following equations.
The tumor volume before administration of each subject was set as the value measured at the time of grouping.

MC38 = experiment: mGI101 and anti-PD-1 antibody in MC38 allotransplanted tumor model; assay type: in vivo, C57BL/6 mice
Method: Rodent-derived colorectal cancer cells, MC38, were purchased from Kerafast (USA) and used for the test. MC38 cells were cultured in RPMI1640 medium (Gibco) containing 10% fetal bovine serum (Gibco) and 1% antibiotic/antifungal agent (Gibco). The cultured cells were harvested using trypsin and then suspended in PBS. In order to establish an allotransplanted tumor model, 1×10^6 MC38 cells were subcutaneously injected into the right flank of C57BL/6 female mice (7-week-old).
The mice were randomly assigned based on tumor volume (30 mm^3), each group including 5 mice. The tumor grafts were identified about day 2 after cell inoculation.
Clinical symptoms such as a disease and a behavioral change were observed once a day during the test period, and deceased animals were identified. At the end of the test period, the animals were sacrificed. The size of the MC38 solid cancer was measured using a tumor 3D scanner (TM900, Peria, Belgium). […] The anti-tumor efficacy was evaluated as compared with the vehicle control. All statistical calculations were performed using Prism 8.0 (Graph Pad Software Inc, USA). The comparison of tumor volume measurements was made through one-way analysis of variance (at the end of this test) followed by Bonferroni's multiple comparison test. A p value of less than 0.05 was considered significant.

[3] = day 42 vs day 21 after tumor transplantation, 8 animals per group

Row | Substance | proportion of CD8+ T cells ([1]; anti-CD3ε 1 μg/ml, 7 days, compared with no stimulus, anti-CD3 antibody alone and GI101C1) | proliferation of CD4+/FoxP3+ Treg cells ([1]; compared with no stimulus and anti-CD3 antibody alone) | immune response inhibited by the cancer cell line overexpressing PD-L1 (IFN-γ) [2] | signaling of CTLA-4 expressed on effector T cells [2] | tumor growth (MDA-MB-231 cells; GI101 6 mg/kg, Keytruda 5 mg/kg, 4 administrations, compared with the control (hIgG4)) | number of mice with tumor growth inhibition rate of 30% or more (MDA-MB-231 cells; [3]) [mice] | number of mice with tumor growth inhibition rate of 50% or more (MDA-MB-231 cells; [3]) [mice] | number of mice with tumor growth inhibition rate of 80% or more (MDA-MB-231 cells; [3]) [mice] | anticancer effect / anti-tumor efficacy (MC38; 16 days, mGI101 6 mpk alone, anti-PD-1 5 mpk, combination mGI101 0.6 mpk + anti-PD-1 5 mpk, vs control) | individual tumor sizes (MC38; mGI101 6 mpk alone (compared with anti-PD-1 group), anti-PD-1 5 mpk, combination 0.6 mpk + 5 mpk) | health state of test animals after administration (MC38; mGI101 alone and in combination with anti-PD-1 antibody, i.p.)
1 | GI101: fusion protein: human CD80 fragment, Ig hinge, Fc domain, linker, IL-2 variant (2M) (R38A, F42A); SEQ ID NO: 9 | significant increase | significant increase | effectively activated | inhibited | tumor growth inhibition | 5 | 5 | 2 |  |  | 
2 | mGI101: fusion protein: mouse CD80, Ig hinge, Fc domain, linker, IL-2 variant (2M) (R38A, F42A); SEQ ID NO: 15 |  |  |  |  |  |  |  |  | anticancer effect was also shown | more excellent tumor growth inhibitory effect | healthy state without signs of pathological abnormalities
